# From PMC9106035, “Synthesis, X-ray Structure and Biological Studies of New Self-Assembled Cu(II) Complexes Derived from s-Triazine Schiff Base Ligand” (Molecules, 2022)
# Legend:
# [1] = DPPH radical scavenging assay; assay type: biochemical
# Method: The studied Cu(II) complexes and the free ligands were assessed for their antioxidant activity levels using an α,α-diphenyl-β-picrylhydrazyl (DPPH) scavenging assay, and the results are given in Table 7. […] The results indicated better antioxidant activity for DMAT than for DMOHT, indicating the effect of the substituent at the phenyl moiety on the antioxidant activity level of the free ligand. […] On the other hand, the Cu(II) complexes have improved levels of antioxidant activity compared to the free ligands.
# Method S3 DPPH Radical Scavenging Activity:
# Freshly prepared (0.004 %w/v) methanol solution of 2,2-diphenyl-1-pi crylhydrazyl (DPPH) radical was prepared and stored at 10 °C in dark place. A methanolic solution of the test compound was prepared using the same procedure. A 40 uL aliquot of the methanol solution was added to 3mL of DPPH solution. Absorbance measurements were recorded immediately with a UV-visible spectrophotometer (Milton Roy, Spectronic 1201). The decrease in absorbance at 515 nm was determined continuously, with data being recorded at 1 min intervals until the absorbance stabilized (16 min). The absorbance of the DPPH radical without antioxidant (control) and the reference compound ascorbic acid were also measured.
# All the determinations were performed in three replicates and averaged. The percentage inhibition (PI) of the DPPH radical was calculated according to the […]
# PI = [{(AC- AT)/ AC} x 100] (1)
# Where AC = Absorbance of the control at t = 0 min and AT = absorbance of the sample+DPPH at t = 16 min. The 50% inhibitory concentration (IC50), the concentration required t o inhibit DPPH radical by 50%, was estimated from graphic plots of the dose respons e curve.
# [2] = system: lung carcinoma A-549 cell line; assay: Anticancer activity, MTT viability assay; assay type: cell-based
# Method: The studied compounds were examined for their anticancer activity against the lung carcinoma A-549 cell line.
# (§1) Method S4 Evaluation of Cytotoxic activity
# (§2) The cells were propagated in Dulbecco’s modified Eagle’s medium (DMEM) supplemented with 10% heat-inactivated fetal bovine serum, 1 % L-glutamine, HEPES buffer and 50µg/mL Gentamycin. All cells were maintained at 37 °C in a humidified atmosphere with 5% CO2 and were subcultured tw o times a week.
# (§3) Cytotoxicity evaluation using viability assay
# (§4) For cytotoxicity assay, the cells were seeded in 96-well plate at a cell concentration of 1×10^4 cells per well in 100µl of growth medium. Fresh medium containing different concentrations of the test sample was added after 24 h of seeding. Serial two-fold dilutions of the tested chemical compound were added to confluent cell monolayers dispensed into 96-well, flat-bottomed microtiter plates (Falcon, NJ, USA) using a multichannel pipette. The microtiter plates were incubated at 37 °C in a humidified incubator with 5% CO2 for a period of 24 h. Three wells were used for each concentration of the test sample. Control cells were incubated without test sample and with or without DMSO. The little percentage of DMSO present in the […]
# (§5) cells for at 37°C, for 24 h, the viabl e cells yield was determined by the MTT test.
# (§6) Briefly, the media was removed from the 96 well plate and replaced with 100 µL of fresh culture DMEM m edium without phenol red then 10 µL of the 12 mM MTT stock solution (5 mg of MTT in 1 mL of PBS) to each well including the untreated controls. The 96 well plates were then incubated at 37°C and 5% CO2 for 4 hours. An 85 µL aliquot of the media was removed from t he wells, and 50 µL of DMSO was added to each well and mixed thoroughly with the pipette and incubated at 37°C for 10 min. Then, the optical density was measured at 590 nm with the microplate reader (SunRise, TECAN, Inc, USA) to determine the number of viable cells and the percentage of viability was calculat ed as [(ODt/ODc)]x100% where ODt i s the mean optical density of wells treated with the tested s ample and ODc is the mean optical density of untreated cells. The relation between surviving cells and drug concentration is plotted to get the survival curve of each tumor cell line after treatment with the specified compound. The 50% inhibitory concentration (IC50), the concentration required to cause t oxic effects in 50% of intact cells, was estimated from graphic plots of the dose response curve for each conc. using Graphpad Prism software (San Diego, […]
# [3] = system: normal human lung fibroblast MRC-5 cells; assay: Cytotoxic activity on normal cells, MTT viability assay; assay type: cell-based; settings: Homo sapiens, MRC5, MRC-5, Table S10, read-out: Inhibitory %
# Method: In this regard, the selectivity index (SI) was calculated as the ratio of cytotoxic effect on the normal cell line to the cytotoxic effect on the cancer cell line.
# as §1, §2, §3, §4, §5, §6
structure (smiles),measurement,setting,value
"CC(=NNc1nc(N2CCOCC2)nc(N2CCOCC2)n1)c1ccccc1N [DMAT, 2-(1-(2-(4,6-dimorpholino-1,3,5-triazin-2-yl)hydrazono)ethyl)aniline]",DPPH Scavenging %,[1]; Conc. 2.5 μg/mL,20.79%
same,DPPH Scavenging %,[1]; Conc. 5 μg/mL,28.65%
same,DPPH Scavenging %,[1]; Conc. 10 μg/mL,35.17%
same,DPPH Scavenging %,[1]; Conc. 20 μg/mL,54.23%
same,DPPH Scavenging %,[1]; Conc. 40 μg/mL,70.89%
same,DPPH Scavenging %,[1]; Conc. 80 μg/mL,79.28%
same,DPPH Scavenging %,[1]; Conc. 160 μg/mL,86.59%
same,DPPH Scavenging %,[1]; Conc. 320 μg/mL,91.37%
same,DPPH Scavenging %,[1]; Conc. 640 μg/mL,94.08%
same,DPPH Scavenging %,[1]; Conc. 1280 μg/mL,95.31%
same,IC50 (DPPH scavenging),[1]; antioxidant activity,17.83 ± 0.65 µg/mL
same,SI = CC50/IC50,[2]; CC50 (MRC-5) / IC50 (A-549),1.30
same,viability at 2.5 µM,"[2]; Homo sapiens, A549, A-549, sample conc. 2.5 µM, Table S5",100%
same,inhibition at 2.5 µM,"[2]; Homo sapiens, A549, A-549, sample conc. 2.5 µM, Table S5, read-out: Inhibitory %",0%
same,viability at 5 µM,"[2]; Homo sapiens, A549, A-549, sample conc. 5.0 µM, Table S5",100%
same,inhibition at 5 µM,"[2]; Homo sapiens, A549, A-549, sample conc. 5.0 µM, Table S5, read-out: Inhibitory %",0%
same,viability at 9.8 µM,"[2]; Homo sapiens, A549, A-549, sample conc. 9.8 µM, Table S5",100%
same,inhibition at 9.8 µM,"[2]; Homo sapiens, A549, A-549, sample conc. 9.8 µM, Table S5, read-out: Inhibitory %",0%
same,viability at 19.6 µM,"[2]; Homo sapiens, A549, A-549, sample conc. 19.6 µM, Table S5",100%
same,inhibition at 19.6 µM,"[2]; Homo sapiens, A549, A-549, sample conc. 19.6 µM, Table S5, read-out: Inhibitory %",0%
same,viability at 39.1 µM,"[2]; Homo sapiens, A549, A-549, sample conc. 39.1 µM, Table S5",100%
same,inhibition at 39.1 µM,"[2]; Homo sapiens, A549, A-549, sample conc. 39.1 µM, Table S5, read-out: Inhibitory %",0%
same,viability at 78.4 µM,"[2]; Homo sapiens, A549, A-549, sample conc. 78.4 µM, Table S5",100%
same,inhibition at 78.4 µM,"[2]; Homo sapiens, A549, A-549, sample conc. 78.4 µM, Table S5, read-out: Inhibitory %",0%
same,viability at 156.8 µM,"[2]; Homo sapiens, A549, A-549, sample conc. 156.8 µM, Table S5",98%
same,inhibition at 156.8 µM,"[2]; Homo sapiens, A549, A-549, sample conc. 156.8 µM, Table S5, read-out: Inhibitory %",1.96%
same,viability at 313.7 µM,"[2]; Homo sapiens, A549, A-549, sample conc. 313.7 µM, Table S5",82.7%
same,inhibition at 313.7 µM,"[2]; Homo sapiens, A549, A-549, sample conc. 313.7 µM, Table S5, read-out: Inhibitory %",17.3%
same,viability at 627.4 µM,"[2]; Homo sapiens, A549, A-549, sample conc. 627.4 µM, Table S5",39.6%
same,inhibition at 627.4 µM,"[2]; Homo sapiens, A549, A-549, sample conc. 627.4 µM, Table S5, read-out: Inhibitory %",60.4%
same,viability at 1254.8 µM,"[2]; Homo sapiens, A549, A-549, sample conc. 1254.8 µM, Table S5",17.6%
same,inhibition at 1254.8 µM,"[2]; Homo sapiens, A549, A-549, sample conc. 1254.8 µM, Table S5, read-out: Inhibitory %",82.4%
same,IC50,"[2]; Homo sapiens, A549, A-549 cells, 24 h, MTT",551 µM
same,inhibition at 2.5 µM,[3]; sample conc. 2.5 µM,0%
same,inhibition at 5 µM,[3]; sample conc. 5.0 µM,0%
same,inhibition at 9.8 µM,[3]; sample conc. 9.8 µM,0%
same,inhibition at 19.6 µM,[3]; sample conc. 19.6 µM,0%
same,inhibition at 39.1 µM,[3]; sample conc. 39.1 µM,0%
same,inhibition at 78.4 µM,[3]; sample conc. 78.4 µM,0%
same,inhibition at 156.8 µM,[3]; sample conc. 156.8 µM,0.15%
same,inhibition at 313.7 µM,[3]; sample conc. 313.7 µM,10.7%
same,inhibition at 627.4 µM,[3]; sample conc. 627.4 µM,46.1%
same,inhibition at 1254.8 µM,[3]; sample conc. 1254.8 µM,73.9%
